Patent publication US20080139558A1, “QUINOLONES USEFUL AS INDUCIBLE NITRIC OXIDE SYNTHASE INHIBITORS” (KALYPSYS, INC., priority 2006, published 2008)

Biological target: T1, human iNOS (Homo sapiens, UniProt P35228)
T1 construct: expressed in transfected cells; host or cells: HEK293
Test: DAN assay of nitric oxide production (hiNOS)
Type: cell-based
Details: enzyme expressed in HEK293 cells transiently transfected with human iNOS
In short: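 Human iNOS transiently expressed in HEK293 cells; NO production quantified as nitrite via 2,3-diaminonaphthalene reaction forming fluorescent naphthotriazole.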

T1 sequence (P35228 whole entry): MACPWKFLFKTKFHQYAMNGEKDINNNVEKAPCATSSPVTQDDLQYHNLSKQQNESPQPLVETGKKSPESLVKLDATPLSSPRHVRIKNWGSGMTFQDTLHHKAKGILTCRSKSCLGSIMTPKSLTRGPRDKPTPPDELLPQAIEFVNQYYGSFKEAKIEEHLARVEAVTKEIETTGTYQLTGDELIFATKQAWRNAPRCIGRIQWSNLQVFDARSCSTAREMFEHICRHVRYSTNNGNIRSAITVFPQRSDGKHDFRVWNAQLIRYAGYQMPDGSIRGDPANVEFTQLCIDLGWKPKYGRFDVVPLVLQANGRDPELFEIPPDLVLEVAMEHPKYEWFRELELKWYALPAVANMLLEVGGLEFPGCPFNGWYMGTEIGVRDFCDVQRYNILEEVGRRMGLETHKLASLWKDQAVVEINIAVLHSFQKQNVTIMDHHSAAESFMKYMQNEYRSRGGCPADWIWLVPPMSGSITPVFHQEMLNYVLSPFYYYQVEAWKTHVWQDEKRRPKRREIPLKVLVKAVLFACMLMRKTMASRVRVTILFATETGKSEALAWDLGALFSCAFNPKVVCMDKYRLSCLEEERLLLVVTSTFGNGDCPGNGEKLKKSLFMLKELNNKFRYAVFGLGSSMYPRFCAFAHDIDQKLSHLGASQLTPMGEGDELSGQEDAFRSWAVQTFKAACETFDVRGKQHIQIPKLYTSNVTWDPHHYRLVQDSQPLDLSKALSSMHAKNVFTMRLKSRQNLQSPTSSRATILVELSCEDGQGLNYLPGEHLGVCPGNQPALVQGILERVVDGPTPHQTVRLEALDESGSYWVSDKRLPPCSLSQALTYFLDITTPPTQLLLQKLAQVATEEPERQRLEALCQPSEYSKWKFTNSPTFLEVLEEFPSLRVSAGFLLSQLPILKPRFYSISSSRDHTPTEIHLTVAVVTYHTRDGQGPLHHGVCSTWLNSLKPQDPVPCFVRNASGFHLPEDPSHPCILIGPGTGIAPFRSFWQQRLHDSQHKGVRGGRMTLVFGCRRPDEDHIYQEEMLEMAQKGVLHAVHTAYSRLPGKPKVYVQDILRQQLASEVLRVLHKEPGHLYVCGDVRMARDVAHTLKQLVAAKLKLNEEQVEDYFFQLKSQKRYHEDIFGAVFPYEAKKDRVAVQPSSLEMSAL

Structure (SMILES)	EC50
O=C(c1nnc[nH]1)N(Cc1cc(=O)[nH]c2c(F)c(F)ccc12)c1cccc(Cl)c1 [Example 168, N-(3-Chlorophenyl)-N-[(7,8-difluoro-2-oxo-1,2-dihydroquinolin-4-yl)methyl]-4H-1,2,4-triazole-3-carboxamide]	≤ 5 µM
Cc1ncsc1C(=O)N(Cc1cc(=O)[nH]c2c(F)c(F)ccc12)c1ccc(N2CCCCC2)cc1 [Example 170, N-((7,8-Difluoro-2-oxo-1,2-dihydroquinolin-4-yl)methyl)-4-methyl-N-(4-(piperidin-1-yl)phenyl)thiazole-5-carboxamide]	> 5 µM
Cc1ccncc1C(=O)N(Cc1cc2cccc(F)c2[nH]c1=O)c1cccc(Cl)c1 [Example 172, N-(3-Chlorophenyl)-N-((8-fluoro-2-oxo-1,2-dihydroquinolin-3-yl)methyl)-4-methylnicotinamide]	> 5 µM
Cc1oncc1C(=O)N(Cc1cc2cccc(F)c2[nH]c1=O)c1cccc(Cl)c1 [Example 173, N-(3-Chlorophenyl)-N-((8-fluoro-2-oxo-1,2-dihydroquinolin-3-yl)methyl)-5-methylisoxazole-4-carboxamide]	> 5 µM
Cc1ncsc1C(=O)N(Cc1cc2cccc(F)c2[nH]c1=O)c1ccc(N2CCCCC2)cc1 [Example 174, N-((8-Fluoro-2-oxo-1,2-dihydroquinolin-3-yl)methyl)-4-methyl-N-(piperidin-1-yl)phenylthiazole-5-carboxamide]	> 5 µM
Cc1ccc(N(Cc2cc(=O)[nH]c3c(F)c(F)ccc23)C(=O)c2scnc2C)cc1Cl [Example 177, N-(3-Chloro4-methylphenyl)-N-((7,8-fluoro-2-oxo-1,2-dihydroquinolin-4-yl)methyl)-4-methylthiazole-5-carboxamide]	≤ 5 µM
Cc1ncsc1C(=O)N(Cc1cc(=O)[nH]c2c(F)c(F)ccc12)c1cccc2ccccc12 [Example 179, N-(1-Naphthalene)-N-((7,8-fluoro-2-oxo-1,2-dihydroquinolin-4-yl)methyl)-4-methylthiazole-5-carboxamide]	≤ 5 µM
Cc1ncsc1C(=O)N(Cc1cc(=O)[nH]c2c(F)c(F)ccc12)c1ccc(F)c(Cl)c1 [Example 181, N-(3-Chloro-4-fluorophenyl)-N-((7,8-fluoro-2-oxo-1,2-dihydroquinolin-4-yl)methyl)-4-methylthiazole-5-carboxamide]	≤ 5 µM
Cc1ncsc1C(=O)N(Cc1cc(=O)[nH]c2c(F)c(F)ccc12)c1ccc(C#N)c(Cl)c1 [Example 182, N-(3-Chloro-4-cyanophenyl)-N-((7,8-fluoro-2-oxo-1,2-dihydroquinolin-4-yl)methyl)-4-methylthiazole-5-carboxamide]	≤ 5 µM
Cc1ncsc1C(=O)N(Cc1cc(=O)[nH]c2c(F)c(F)ccc12)c1cccc(Cl)c1C [Example 184, N-(3-Chloro-2-methylphenyl)-N-((7,8-difluoro-2-oxo-1,2-dihydroquinolin-4-yl)methyl)-4-methylthiazole-5-carboxamide]	≤ 5 µM
Cc1ncsc1C(=O)N(Cc1cc(=O)[nH]c2c(F)c(F)ccc12)c1cccc(C#N)c1 [Example 186, N-(3-Cyanophenyl)-N-((7,8-difluoro-2-oxo-1,2-dihydroquinolin-4-yl)methyl)-4-methylthiazole-5-carboxamide]	≤ 5 µM
CC(C)S(=O)(=O)N(Cc1cc(=O)[nH]c2c(F)c(F)ccc12)c1cccc(Cl)c1 [Example 188, N-(3-Chlorophenyl)-N-((7,8-difluoro-2-oxo-1,2-dihydroquinolin-4-yl)methyl)propane-2-sulfonamide]	≤ 5 µM
Cc1nc(C)c(S(=O)(=O)N(Cc2cc(=O)[nH]c3c(F)c(F)ccc23)c2cccc(Cl)c2)s1 [Example 189, N-(3-Chlorophenyl)-N-((7,8-difluoro-2-oxo-1,2-dihydroquinolin-4-yl)methyl)-2,4-dimethylthiazole-5-sulfonamide]	≤ 5 µM
Cc1nc2ccccc2n1Cc1cc(=O)[nH]c2c(F)c(F)ccc12 [Example 190, 7,8-Difluoro-4-((2-methyl-1H-benzo[d]imidazol-1-yl)methyl)quinolin-2(1H)-one]	> 5 µM
CSc1nc2ccccc2n1Cc1cc(=O)[nH]c2c(F)c(F)ccc12 [Example 192, 7,8-Difluoro-4-((2-(methylthio)-1H-benzo[d]imidazol-1-yl)methyl)quinolin-2(1H)-one]	≤ 5 µM
O=c1cc(Cn2c(-c3cscn3)nc3ccccc32)c2ccc(F)c(F)c2[nH]1 [Example 193, 7,8-Difluoro-4-((2-(thiazol-4-yl)-1H-benzo[d]imidazol-1-yl)methyl)quinolin-2(1H)-one]	> 5 µM
O=c1cc(Cn2c(CN3CCOCC3)nc3ccccc32)c2ccc(F)c(F)c2[nH]1 [Example 194, 7,8-Difluoro-4-((2-(morpholinomethyl)-1H-benzo[d]imidazol-1-yl)methyl)quinolin-2(1H)-one]	> 5 µM
CC(C)Cc1nc2ccccc2n1Cc1cc(=O)[nH]c2c(F)c(F)ccc12 [Example 195, 7,8-Difluoro-4-((2-isobutyl-1H-benzo[d]imidazol-1-yl)methyl)quinolin-2(1H)-one]	≤ 5 µM
O=c1cc(Cn2c(-c3ccc(F)cc3)nc3ccccc32)c2ccc(F)c(F)c2[nH]1 [Example 197, 7,8-Difluoro-4-((2-(4-fluorophenyl)-1H-benzo[d]imidazol-1-yl)methyl)quinolin-2(1H)-one]	> 5 µM
CN(C)Cc1nc2ccccc2n1Cc1cc(=O)[nH]c2c(F)c(F)ccc12 [Example 198, 4-((2-((Dimethylamino)methyl)-1H-benzo[d]imidazol-1-yl)methyl)-7,8-difluoroquinolin-2(1H)-one]	> 5 µM
Cc1cnccc1-c1nc2ccccc2n1Cc1cc(=O)[nH]c2c(F)c(F)ccc12 [Example 199, 7,8-Difluoro-4-((2-(3-methylpyridin-4-yl)-1H-benzo[d]imidazol-1-yl)methyl)quinolin-2(1H)-one]	≤ 5 µM
O=c1cc(Cn2c(N3CCOCC3)nc3ccccc32)c2ccc(F)c(F)c2[nH]1 [Example 200, 7,8-Difluoro-4-((2-morpholino-1H-benzo[d]imidazol-1-yl)methyl)quinolin-2(1H)-one]	> 5 µM
CN(C)c1nc2ccccc2n1Cc1cc(=O)[nH]c2c(F)c(F)ccc12 [Example 201, 4-((2-(Dimethylamino)-1H-benzo[d]imidazol-1-yl)methyl)-7,8-difluoroquinolin-2(1H)-one]	> 5 µM
CC(C)(C)c1nc2ccccc2n1Cc1cc(=O)[nH]c2c(F)c(F)ccc12 [Example 202, 4-((2-tert-Butyl-1H-benzo[d]imidazol-1-yl)methyl)-7,8-difluoroquinolin-2(1H)-one]	> 5 µM
O=c1cc(Cn2c(Cl)nc3ccccc32)c2ccc(F)c(F)c2[nH]1 [Example 203, 4-((2-Chloro-1H-benzo[d]imidazol-1-yl)methyl)-7,8-difluoroquinolin-2(1H)-one]	> 5 µM
O=c1cc(Cn2c(C3CCCCC3)nc3ccccc32)c2ccc(F)c(F)c2[nH]1 [Example 204, 4-((2-Cyclohexyl-1H-benzo[d]imidazol-1-yl)methyl)-7,8-difluoroquinolin-2(1H)-one]	> 5 µM

Next, values leading:

EC50	Structure (SMILES)
≤ 5 µM	Cn1nnc(C(=O)N(Cc2cc(=O)[nH]c3c(F)c(F)ccc23)c2cccc(Cl)c2)n1 [Example 169]
> 5 µM	Cc1ncsc1C(=O)N(Cc1cc2cccc(F)c2[nH]c1=O)c1cccc(Cl)c1 [Example 171, N-(3-Chlorophenyl)-N-((8-fluoro-2-oxy-1,2-dihydroquinolin-3-yl)methyl)-4-methylthiazole-5-carboxamide]
≤ 5 µM	Cc1ncsc1C(=O)N(Cc1cc(=O)[nH]c2c(F)c(F)ccc12)c1ccccc1 [Example 175, N-Phenyl-N-((7,8-fluoro-2-oxo-1,2-dihydroquinolin-4-yl)methyl)-4-methylthiazole-5-carboxamide]
≤ 5 µM	COc1ccc(N(Cc2cc(=O)[nH]c3c(F)c(F)ccc23)C(=O)c2scnc2C)cc1Cl [Example 176, N-(3-Chloro4-methoxylphenyl)-N-((7,8-fluoro-2-oxo-1,2-dihydroquinolin-4-yl)methyl)-4-methylthiazole-5-carboxamide]
≤ 5 µM	Cc1ncsc1C(=O)N(Cc1cc(=O)[nH]c2c(F)c(F)ccc12)c1cc(F)cc(F)c1 [Example 178, N-(3,5-Difluorophenyl)-N-((7,8-fluoro-2-oxo-1,2-dihydroquinolin-4-yl)methyl)-4-methylthiazole-5-carboxamide]
≤ 5 µM	COc1cccc(N(Cc2cc(=O)[nH]c3c(F)c(F)ccc23)C(=O)c2scnc2C)c1 [Example 180, N-(3-Methoxylphenyl)-N-((7,8-fluoro-2-oxo-1,2-dihydroquinolin-4-yl)methyl)-4-methylthiazole-5-carboxamide]
≤ 5 µM	Cc1ncsc1C(=O)N(Cc1cc(=O)[nH]c2c(F)c(F)ccc12)c1ccc(F)cc1 [Example 183, N-(4-Fluorolphenyl)-N-((7,8-fluoro-2-oxo-1,2-dihydroquinolin-4-yl)methyl)-4-methylthiazole-5-carboxamide]
> 5 µM	Cc1ncsc1C(=O)N(Cc1cc(=O)[nH]c2c(F)c(F)ccc12)C(C)C [Example 185]
≤ 5 µM	Cc1ncsc1C(=O)N(Cc1cc(=O)[nH]c2c(F)cccc12)c1cccc(Cl)c1F [Example 187, N-(3-Chloro-2-fluorophenyl)-N-((8-fluoro-2-oxo-1,2-dihydroquinolin-4-yl)methyl)-4-methylthiazole-5-carboxamide]
≤ 5 µM	O=c1cc(Cn2c(-c3cncs3)nc3ccccc32)c2ccc(F)c(F)c2[nH]1 [Example 191, 7,8-Difluoro-4-((2-(thiazol-5-yl)-1H-benzo[d]imidazol-1-yl)methyl)quinolin-2(1H)-one]
≤ 5 µM	O=c1cc(Cn2c(-c3cccc(F)c3)nc3ccccc32)c2ccc(F)c(F)c2[nH]1 [Example 196, 7,8-Difluoro-4-((2-(3-fluorophenyl)-1H-benzo[d]imidazol-1-yl)methyl)quinolin-2(1H)-one]
> 5 µM	CC(C)(C)OC(=O)N1CCC(c2nc3ccccc3n2Cc2cc(=O)[nH]c3c(F)c(F)ccc23)CC1 [Example 205, tert-Butyl 4-(1-((7,8-difluoro-2-oxo-1,2-dihydroquinolin-4-yl)methyl)-1H-benzo[d]imidazol-2-yl)piperidine-1-carboxylate]
